The values that follow come from US6843854B2, “Method and apparatus for separating a component from a mixture” (Purdue Research Foundation, priority 2002, dated 2005).

By solubility is commonly meant the dissolved amount per volume that the medium holds.

Converted amounts (≈) assume the structure as drawn.

One data set can be described thus: physchem. As to the method:
The solubility data for each system tested in Table DD, was determined by the following method. First, a measured amount of dry crude mixture (39.3% clari, 37.5% 6,11, and 23.2% other impurities) was added to a measured volume of the mobile phase solvent being used for the particular test case and the mixture was stirred. Heat was added while the mixture was being stirred because dissolution of Clarithromycin and 6,11 is very slow at room temperature. The solution temperature was allowed to approach the boiling temperature of the solvent. The solution was held constant at that temperature until no more solid material was present in the mixture (complete dissolution). […]
In addition to the assembly of the physical system 500, the maximum feed concentration allowed by solubility must be known to optimize the operating parameters with the non-linear, non-equilibrium equations. The solubility was determined in the manner described earlier. Next, the optimal feed concentration was determined and was created by diluting the maximum feed concentration solution. […]
The feed solutions for Experiment #1 were prepared by mixing 5.6 g dry crude (39.3% clari, 37.5% 6,11, 23.2% other) Clarithromycin and 6,11 with 1000 ml of 80% methanol. […] Finally, this solution was filtered to remove any remaining solids and the volume measured to insure there was not significant evaporation. […]

A short description of data set [1]: Solubility in Ethanol/water solutions (excess solid stirred four hours, filtered, HPLC).
Description: The relative solubilities of Clarithromycin and 6,11 at various percentages of Ethanol in the Ethanol/water solution provide a solubility curve for both Clarithromycin and 6,11. The Ethanol used is 200 proof and is available from McCormick Distilling Co. in Weston, Mass. The water used is distilled deionized water obtained from a MILLI-Q™ system available from Millipore located in Bedford, Mass. The solubilities of Clarithromycin and 6,11 are determined by adding an excess amount of the component being tested to the tested Ethanol/water solution and stirring the mixture for four hours at approximately room temperature (24 C.). The resultant solution is then filtered and assayed for concentration using HPLC (high performance liquid chromatography).
Clarithromycin solubility curve 90 was found using pure Clarithromycin. 6,11 solubility curve 92 was found using a binary mixture of Clarithromycin and 6,11.

For `CC[C@H]1OC(=O)[C@H](C)[C@@H](O[C@H]2C[C@@](C)(OC)[C@@H](O)[C@H](C)O2)[C@H](C)[C@@H](O[C@@H]2O[C@H](C)C[C@H](N(C)C)[C@H]2O)[C@](C)(OC)C[C@@H](C)C(=O)[C@H](C)[C@@H](OC)[C@]1(C)O` [6,11, 6,11-O-methyl erythromycin A], the solubility limit in the data set “physchem” turned out to be 3030 µg/mL (≈ 3.98 mM).

Consider `CC[C@H]1OC(=O)[C@H](C)[C@@H](O[C@H]2C[C@@](C)(OC)[C@@H](O)[C@H](C)O2)[C@H](C)[C@@H](O[C@@H]2O[C@H](C)C[C@H](N(C)C)[C@H]2O)[C@](C)(OC)C[C@@H](C)C(=O)[C@H](C)[C@@H](O)[C@]1(C)O` [Clarithromycin, 6-O-methyl erythromycin A], for which the solubility entry is “very small” in data set [1] (Ethanol percentages below about 60%); “higher degree of solubility than 6,11” in data set [1] (various Ethanol/water solutions, approximately room temperature (24 C.), FIG. 8); 2460 µg/mL (≈ 3.29 mM) in “physchem” (24 °C, organic solvent or mixture, thermodynamic from solid, solubility limit). Moreover, the “Ethanol content of the Ethanol/water solution at maximum solubility” value in data set [1] (approximately room temperature (24 C.), FIG. 8) is reported as “about 80 % Ethanol”.
